These results are taken from patent US8658672B2, “HIF-1α activating agent” (University of Seoul Foundation of Industrial and Academic …, priority 2006, dated 2014).

In data set [1] the test system is HIF-1α. In words: Effects of CQ and TPEN on HIF-1α stabilization in HepG2 cells (Western blotting). Format: cell-based, human. The following applies: 6 hours, TPEN 5 μM. (Immunoblotting shows a protein as a band on a membrane.)
Description: Human HepG2 hepatoma cells (ATCC HB-8065) were cultured under normoxic condition and under hypoxic condition, respectively. HepG2 cells were cultured in MEM (Invitrogen, USA) containing non-essential amino acids and supplemented with 10% FBS (fetal bovine serum: Biowhittaker, USA). The cells were made hypoxic by incubation in anaerobic incubator (Model 1029, Form a Scientific. Inc) at 37° C. with 5% CO2, 10% H2 and 85% N2. The cells were treated with drugs one hour before incubation under hypoxic condition. To separate RNAs, the cells were incubated for 16 hours under hypoxic condition and to separate proteins the cells were cultured for 6 hours under hypoxic condition. […] HIF-1α expression was investigated by Western blotting. Samples from each group proceeded to 8% SDS-PAGE for electrophoresis and were then transferred onto nitrocellulose membrane (Schleicher & Schuell Bioscience, USA). Anti-human HIF-1α antibody (BD Pharmingen, USA) (1:800) was used as a primary antibody and mouse-Ig conjugated horseradish peroxidase (1:3,000) was used as a secondary antibody. Anti-β tubulin antibody (BD, Pharmingen, USA) was used as a control.
For data set [2], the system named is HIF-1α. In words: Effects of CQ and TPEN on HIF-1α stabilization in SH-SY5Y cells (Western blotting). Format: cell-based, human.
Description: Human SH-SY5Y neuroblastoma cells (ATCC CRL-2266) were cultured under normoxic condition and hypoxic condition, respectively. SH-SY5Y cells were cultured in MEM (Invitrogen, USA) containing non-essential amino acids and supplemented with 10% FBS (fetal bovine serum: Biowhittaker, USA). The cells were made hypoxic by incubation in anaerobic incubator (Model 1029, Form a Scientific Inc) at 37° C. with 5% CO2, 10% H2 and 85% N2. The cells were treated with drugs one hour before hypoxic treatment. To separate RNAs, the cells were incubated for 16 hours under hypoxic condition and to separate proteins the cells were cultured for 6 hours under hypoxic condition. […] HIF-1α expression was investigated by Western blotting. Samples from each group proceeded to 8% SDS-PAGE for electrophoresis and were then transferred onto nitrocellulose membrane (Sigma, USA). Anti-human HIF-1α antibody (BD, Pharmingen, USA) (1:800) was used as a primary antibody and mouse-Ig conjugated horseradish:peroxidase (1:3,000) was used as a secondary antibody. Anti-β tubulin antibody (BD, Pharmingen, USA) was used as a control.
The target in another data set is T1, human PHD2 (Homo sapiens, UniProt Q9GZT9).
T1 construct: histidine tag; made in house; host or cells: E. coli
Briefly: PHD2 activity, in vitro VHL pull down assay. The following applies: capture of [35S]-labeled VHL by GST-ODD of human HIF-1α. The data set is classed as biochemical. The procedure: The present inventors investigated the effect of CQ on the activity of PHD2. Human PHD2 gene (AJ310543) was cloned into pET21b His2(+) vector and then the human PHD2 was expressed with a histidine tag in E. coli and purified by Ni-affinity chromatography (Choi, K. O. et al., Mol. Pharrmacol. 68, 1803-1809, 2005). The in vitro VHL pull down assay was performed as described by Haakkola et al (Haakkola, P. et al., Science 292,468-472, 2001). Particularly, [^35S]-methionine-labeled VHL protein was synthesized by in vitro transcription and translation using the pcDNA3.1/myc-hygro-VHL plasmid (Promega, Cat# L1170, USA), according to the instruction manual (Promega, Cat# L1170). GST-ODD (amino acids 401-603 of human HIF-1α) was expressed in E. coli and purified with glutathione-uniflow resin according to the instruction manual (BD Bioscience Clontech, Cat# 8912-1, USA). […] After agitation at 4° C. for 2 hours, the resin was washed three times with 1 ml of NETN buffer, and proteins were eluted in 3×SDS sample buffer, fractionated by 12% SDS-PAGE, and detected by autoradiography. The amount of each sample loaded was monitored by staining the GST-ODD with Coomassie blue.

The test system of the next data set is GAL4-HIF-1α. In words: HIF-1α transactivation, Gal4-driven reporter gene assay in HepG2 cells. The data set is classed as cell-based, human. To be noted: TPEN 5 μM, 16 hours. As to the method: Human HepG2 hepatoma cells were cultured at the concentration of 5×10^4, which were transfected with 100 ng of Gal-4-driven reporter plasmid encoding the firefly luciferase gene under the control of the Gal4 binding site together with pGal4/HIF-1α plasmid which expresses HIF-1α linked to the DNA binding domain of the yeast Gal4 protein (amino acids 1-147). The transfected human HepG2 hepatoma cells were incubated in both normoxic and hypoxic conditions and then treated with CQ (10, 50 μM) for 16 hours in normoxic condition. 48 hours after the transfection, luciferase activities were analyzed using the reporter gene assay system (Promega, USA) and normalized by β-galactosidase activities.
Background: A reporter such as luciferase makes a cellular process visible.

The target in a further data set is T2, HIF-1α and CBP (UniProt P45481+Q16665).
T2 construct: GST-CBP N-domain (amino acids 1-450); made in house
Briefly: In vitro interaction between HIF-1α and CBP. The data set is classed as binding, human. To be noted: [35S]-labeled HIF-1α, bead-bound GST-CBP N-domain, with or without ZnCl2 20 μM. The procedure: Glutathione-uniflow resin bound protein was washed four times with 1 ml of 0.1% Nonidet P-40 containing binding buffer, eluted by heating in SDS sample buffer, and fractionated by SDS-PAGE (Dann et al., Proc Natl Acad Sci USA 99:15351-15356, 2002).

The conditions of data set [3]: cited from earlier work.
In a further data set the target is FIH-1 (Homo sapiens, UniProt Q9NWT6). In words: In vitro FIH-1 activity (capture of radio-labeled HIF-1α by GST-CBP). Format: biochemical. Set-up: histidine tag; made in house; host or cells: E. coli. To be noted: CQ 10 μM and 50 μM; interaction between HIF-1α and CBP as readout. The procedure: The human FIH-1 gene (AF395830) was cloned into pET28a vector (Novagen, USA) and FIH-1 was overexpressed in E. coli as a histidine-tagged fusion protein and purified by Ni-affinity chromatography. The fusion protein was purified by gel-filtration chromatography (Hi-Load Superdex 200) and concentrated by ultrafiltration (Choi et al., Mol Pharmacol 68:1803-1809, 2005).
The resin-bound GST-CBP N-domain (amino acids 1-450) (Kamei et al., Cell 85:403-414, 1996) was then added to 1 μg of each mixture in 500 μl of binding buffer (200 mM Tris-HCl (pH 8.0), 150 mM NaCl, 20 μM ZnCl2, 0.5 mM DTT) and incubation continued for one hour at 4° C. Glutathione-uniflow resin bound protein was washed four times with 1 ml of 0.1% Nondiet P-40 containing binding buffer, and visualized by SDS-PAGE by eluting using SDS sample buffer (Dann et al., Proc Natl Acad Sci USA 99:15351-15356, 2002). The present inventors substituted the asparagine-803 residue of HIF-1α with alanine to generate HIF-1α mutant [HIF-1α-C(N803A)], followed by investigation on FIH-1 activity by the same manner as described above.
Radio-labeled HIF-1α was reacted with the purified recombinant FIH-1, in the presence or absence of CQ or TPEN. FIH-1 was expected to […] the asparagine-803 residue of HIF-1α and thus inhibit the interaction with CBP binding to HIF-1α transactivation domain (Mahon, P. C. et al., Genes Dev. 15, 2675-2686, 2001; Dannm C. E. R., et al., Proc. Natl. Acad. Sci. USA 99, 15351-15356, 2002; Lando, D., et al., Science 295, 858-861, 2002; Freedman, S. J. et al., Proc. Natl. Acad. Sci. USA 99, 5367-5372, 2002).

T2 sequence (P45481 1-450 limits assumed, one chain of several): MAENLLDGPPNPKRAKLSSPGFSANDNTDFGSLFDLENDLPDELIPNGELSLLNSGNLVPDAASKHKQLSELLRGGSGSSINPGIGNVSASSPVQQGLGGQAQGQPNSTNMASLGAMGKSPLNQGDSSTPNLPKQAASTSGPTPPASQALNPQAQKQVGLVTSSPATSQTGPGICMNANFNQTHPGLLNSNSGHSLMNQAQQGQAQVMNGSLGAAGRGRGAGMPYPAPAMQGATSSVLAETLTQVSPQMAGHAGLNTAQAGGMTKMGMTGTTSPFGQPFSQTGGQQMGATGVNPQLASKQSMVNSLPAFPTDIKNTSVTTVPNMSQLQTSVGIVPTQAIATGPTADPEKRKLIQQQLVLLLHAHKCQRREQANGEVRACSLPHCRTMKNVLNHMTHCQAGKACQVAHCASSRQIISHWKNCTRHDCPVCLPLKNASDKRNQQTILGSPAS
T1 sequence (Q9GZT9 whole entry): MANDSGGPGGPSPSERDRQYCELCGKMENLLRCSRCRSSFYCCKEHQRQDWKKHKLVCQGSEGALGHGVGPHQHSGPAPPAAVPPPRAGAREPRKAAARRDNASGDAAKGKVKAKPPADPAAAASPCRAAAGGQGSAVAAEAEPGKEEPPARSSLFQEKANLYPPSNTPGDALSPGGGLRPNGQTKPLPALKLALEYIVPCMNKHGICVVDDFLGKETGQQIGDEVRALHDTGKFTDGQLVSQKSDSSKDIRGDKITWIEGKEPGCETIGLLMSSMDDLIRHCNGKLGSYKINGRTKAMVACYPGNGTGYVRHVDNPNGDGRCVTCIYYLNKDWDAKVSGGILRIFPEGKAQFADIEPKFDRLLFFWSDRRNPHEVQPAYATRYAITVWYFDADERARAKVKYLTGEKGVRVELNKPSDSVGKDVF
Chain of FIH-1 (Q9NWT6 whole entry, the tested form may be a part): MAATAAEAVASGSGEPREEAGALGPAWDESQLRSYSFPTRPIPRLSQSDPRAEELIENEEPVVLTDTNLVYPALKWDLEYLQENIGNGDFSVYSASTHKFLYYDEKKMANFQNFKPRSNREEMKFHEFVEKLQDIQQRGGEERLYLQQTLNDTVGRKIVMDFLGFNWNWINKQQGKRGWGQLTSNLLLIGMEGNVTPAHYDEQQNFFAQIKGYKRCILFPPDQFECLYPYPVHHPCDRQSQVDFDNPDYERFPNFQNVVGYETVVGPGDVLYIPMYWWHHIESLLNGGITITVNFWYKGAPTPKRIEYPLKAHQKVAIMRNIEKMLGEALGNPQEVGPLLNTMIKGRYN

With `c1ccc(CN(CCN(Cc2ccccn2)Cc2ccccn2)Cc2ccccn2)nc1` [TPEN, tetrakis-(2-pyridylmethyl)ethanediamine], the HIF-1α accumulation entry is “induced HIF-1α accumulation” with HIF-1α [1] (hypoxic condition, CQ 10, 100 μM, compared with a control) and “induced HIF-1α accumulation” in the data set on HIF-1α [2] (oxygen condition not printed in the sentence (control also accumulated)). Besides, the “level of HIF-1α protein” value in the data set on HIF-1α [1] (normoxic condition, CQ 10, 100, 500 μM) was “increased the level of HIF-1α protein”; with HIF-1α [2] (normoxic, 6 hours, TPEN 5 μM, CQ 10, 100 μM) it was “increased the level of HIF-1α protein”. Moreover, at human PHD2, the “activity of PHD2” value is “increased the activity of PHD2”. Besides, the “transactivation activity of HIF-1α” value is listed as “increased HIF-1α activity” in the data set with GAL4-HIF-1α (hypoxic condition) and “not in normoxic condition” in the data set with GAL4-HIF-1α (normoxic condition, CQ 10, 50 μM). The “direct effect on the interaction between CBP and HIF-1α” value at HIF-1α and CBP is “neither CQ nor TPEN directly affected the interaction between CBP and HIF-1α”. Besides, in data set [3] (Ca^2+), the “pKa value, Ca2+” value is on record as 3. For the same molecule, in data set [3] (Fe^3+), the “pKa value, Fe3+” value is 14.4. In data set [3] (Zn^2+), the “pKa value, Zn2+” value is 15.4. On FIH-1, the FIH-1 activity result is reported as “did not reduce FIH-1 activity”.
